System: 328373-195-R-J1-PDC complex spheroids, viability % test/control
Assay: Anticancer human tumor 328373-195-R-J1-PDC patient-derived head and neck squamous carcinoma cell line growth inhibition [CLK]
Details: for IC50: curve of first compound; for viability, T/C: stronger effect = lower value
How it was run: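 Patient-derived tumor cells grown as complex spheroids with HUVEC endothelial cells and mesenchymal stem cells, treated with drug combinations. Concentrations descend in half-log steps from near clinical Cmax, or from 10 microM if Cmax unknown.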

[1] = second compound 0.0316 µM, first compound 0.0316 µM
[2] = second compound 0.0316 µM, first compound 0.1 µM
[3] = second compound 0.0316 µM, first compound 0.316 µM
[4] = second compound 0.0316 µM, first compound 1 µM
[5] = second compound 0.1 µM, first compound 0.0316 µM
[6] = second compound 0.1 µM, first compound 0.1 µM
[7] = second compound 0.1 µM, first compound 0.316 µM
[8] = second compound 0.1 µM, first compound 1 µM
[9] = second compound 0.316 µM, first compound 0.0316 µM
[10] = second compound 0.316 µM, first compound 0.1 µM
[11] = second compound 0.316 µM, first compound 0.316 µM
[12] = second compound 0.316 µM, first compound 1 µM
[13] = second compound 1 µM, first compound 0.0316 µM
[14] = second compound 1 µM, first compound 0.1 µM
[15] = second compound 1 µM, first compound 0.316 µM
[16] = second compound 1 µM, first compound 1 µM
[17] = second compound 3.16 µM, first compound 0.0316 µM
[18] = second compound 3.16 µM, first compound 0.1 µM
[19] = second compound 3.16 µM, first compound 0.316 µM
[20] = second compound 3.16 µM, first compound 1 µM
[21] = second compound 10 µM, first compound 0.0316 µM
[22] = second compound 10 µM, first compound 0.1 µM
[23] = second compound 10 µM, first compound 0.316 µM
[24] = second compound 10 µM, first compound 1 µM
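Also: spheroids exposed to the agents for 7 days.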

CCc1c2c(nc3ccc(O)cc13)-c1cc3c(c(=O)n1C2)COC(=O)[C@]3(O)CC + CN1CCN(c2cc(C(=O)Nc3cc4cc(-c5cnn(C)c5)ccc4cn3)ccn2)CC1 gave an IC50 (second compound 0.0316 µM) of less than 3.16 nM, an IC50 (second compound 0.1 µM) of less than 3.16 nM and an IC50 (second compound 0.316 µM) of less than 3.16 nM. It also gave an IC50 (second compound 1 µM) of less than 3.16 nM, an IC50 (second compound 3.16 µM) of less than 3.16 nM and an IC50 (second compound 10 µM) of less than 3.16 nM. The viability, T/C (second compound 0.0316 µM, first compound 0.00316 µM) was 12.2%, the viability, T/C (second compound 0.0316 µM, first compound 0.01 µM) was 1.41% and the viability, T/C [1] was 2.09%. It also gave a viability, T/C [2] of 0.42%, a viability, T/C [3] of 0.89% and a viability, T/C [4] of 2.49%. For the same compound, the viability, T/C (second compound 0.1 µM, first compound 0.00316 µM) was 10.9%, the viability, T/C (second compound 0.1 µM, first compound 0.01 µM) was 2.12% and the viability, T/C [5] was 2.78%. For the same compound, the viability, T/C [6] was 0.32%, the viability, T/C [7] was 1.24% and the viability, T/C [8] was 0.18%. It also gave a viability, T/C (second compound 0.316 µM, first compound 0.00316 µM) of 7.1%, a viability, T/C (second compound 0.316 µM, first compound 0.01 µM) of 3.19% and a viability, T/C [9] of 1.44%. It also gave a viability, T/C [10] of 0.21%, a viability, T/C [11] of 0.41% and a viability, T/C [12] of 0.05%. The viability, T/C (second compound 1 µM, first compound 0.00316 µM) was 0.07%, the viability, T/C (second compound 1 µM, first compound 0.01 µM) was 1.93% and the viability, T/C [13] was 2.72%. It also gave a viability, T/C [14] of 0.03%, a viability, T/C [15] of 0.04% and a viability, T/C [16] of 0.78%. For the same compound, the viability, T/C (second compound 3.16 µM, first compound 0.00316 µM) was 0.96%, the viability, T/C (second compound 3.16 µM, first compound 0.01 µM) was 0.54% and the viability, T/C [17] was 0.11%. The viability, T/C [18] was 2.41%, the viability, T/C [19] was 2.52% and the viability, T/C [20] was 0.11%. It also gave a viability, T/C (second compound 10 µM, first compound 0.00316 µM) of 0.51%, a viability, T/C (second compound 10 µM, first compound 0.01 µM) of 0.1% and a viability, T/C [21] of 1.56%. For the same compound, the viability, T/C [22] was 0.07%, the viability, T/C [23] was 1.03% and the viability, T/C [24] was 2.56%.

Work on CC(=O)O[C@H]1C(=O)[C@@]2(C)[C@H]([C@H](OC(=O)c3ccccc3)[C@]3(O)C[C@H](OC(=O)[C@H](O)[C@@H](NC(=O)c4ccccc4)c4ccccc4)C(C)=C1C3(C)C)[C@]1(OC(C)=O)CO[C@@H]1C[C@@H]2O + CN1CCN(c2cc(C(=O)Nc3cc4cc(-c5cnn(C)c5)ccc4cn3)ccn2)CC1 yielded an IC50 (second compound 0.0316 µM) of less than 31.6 nM, an IC50 (second compound 0.1 µM) of less than 31.6 nM and an IC50 (second compound 0.316 µM) of less than 31.6 nM. It also gave an IC50 (second compound 1 µM) of less than 31.6 nM, an IC50 (second compound 3.16 µM) of less than 31.6 nM and an IC50 (second compound 10 µM) of less than 31.6 nM. The viability, T/C [1] was 7.74%, the viability, T/C [2] was 4.32% and the viability, T/C [3] was 7.3%. The viability, T/C [4] was 5.75%, the viability, T/C (second compound 0.0316 µM, first compound 3.16 µM) was 9.83% and the viability, T/C (second compound 0.0316 µM, first compound 10 µM) was 12.9%. The viability, T/C [5] was 2.72%, the viability, T/C [6] was 2.97% and the viability, T/C [7] was 8.34%. It also gave a viability, T/C [8] of 5.1%, a viability, T/C (second compound 0.1 µM, first compound 3.16 µM) of 7.93% and a viability, T/C (second compound 0.1 µM, first compound 10 µM) of 9.97%. The viability, T/C [9] was 3.35%, the viability, T/C [10] was 5.31% and the viability, T/C [11] was 5.81%. The viability, T/C [12] was 5.22%, the viability, T/C (second compound 0.316 µM, first compound 3.16 µM) was 5.91% and the viability, T/C (second compound 0.316 µM, first compound 10 µM) was 10.6%. The viability, T/C [13] was 0.18%, the viability, T/C [14] was 0.12% and the viability, T/C [15] was 0.12%. For the same compound, the viability, T/C [16] was 0.07%, the viability, T/C (second compound 1 µM, first compound 3.16 µM) was 0.08% and the viability, T/C (second compound 1 µM, first compound 10 µM) was 0.07%. For the same compound, the viability, T/C [17] was 2.71%, the viability, T/C [18] was 0.11% and the viability, T/C [19] was 0.12%. It also gave a viability, T/C [20] of 0.08%, a viability, T/C (second compound 3.16 µM, first compound 3.16 µM) of 0.76% and a viability, T/C (second compound 3.16 µM, first compound 10 µM) of 2.99%. The viability, T/C [21] was 1.85%, the viability, T/C [22] was 1.39% and the viability, T/C [23] was 0.15%. It also gave a viability, T/C [24] of 0.17%, a viability, T/C (second compound 10 µM, first compound 3.16 µM) of 2.04% and a viability, T/C (second compound 10 µM, first compound 10 µM) of 2.05%.
